ChEMBL document CHEMBL1147475, “2-Alkyl-4-arylimidazoles: structurally novel sodium channel modulators” (Bioorg Med Chem Lett, 2004)

Experiments:
[1] = target: Sodium channel alpha subunits; brain (Types I, II, III) (Rattus norvegicus, UniProt P04775+P04774+P08104); experiment: Concentration required to inhibit [3H]BTX binding to Sodium channel of rat brain
SH-SY5Y = experiment: Cytoprotection of SH-SY5Y cells against veratridine-induced cytotoxicity; type: functional, cell-based; conditions: Homo sapiens

`c1ccc(-c2ccc(-c3c[nH]c(CCC4CCCCC4)n3)cc2)cc1` was tested, and the IC50 [1] was 26 nM and the IC50 (SH-SY5Y) was 760 nM.
`Nc1nnc(-c2cccc(Cl)c2Cl)c(N)n1` [LAMOTRIGINE] showed an IC50 [1] of 31000 nM.
Compound `CCCCCC(CCCCC)c1nc(-c2ccccc2)c[nH]1` has an IC50 [1] of 86 nM.
`CCCC(CCC)c1nc(-c2ccc(-c3ccccc3)cc2)c[nH]1` was tested, and the IC50 [1] was 100 nM.
With `CCCC(CCC)c1nc(-c2ccc(F)cc2)c[nH]1` the IC50 [1] was 518 nM.
Work on `Cc1nc(-c2ccc(-c3ccccc3)cc2)c[nH]1` yielded an IC50 [1] of 1460 nM.
`CCCC(CCC)c1nc(-c2ccc(-c3ccc(Br)cc3)cc2)c[nH]1` was tested, and the IC50 [1] was 322 nM.
`c1ccc(-c2c[nH]c([C@H]3Cc4c([nH]c5ccccc45)[C@@H](c4ccccc4)N3)n2)cc1` was tested, and the IC50 [1] was 1460 nM.
`CCCCCCc1nc(-c2ccc(CC(C)C)cc2)c[nH]1` was tested, and the IC50 [1] was 28 nM and the IC50 (SH-SY5Y) was 380 nM.
For `CCCCCCc1nc(-c2ccc(-c3ccccc3)cc2)c[nH]1`, the IC50 [1] was 16 nM and the IC50 (SH-SY5Y) was 450 nM.
With `CCCCCC(CCCCC)c1nc(-c2ccc(F)cc2)c[nH]1` the IC50 [1] was 25 nM and the IC50 (SH-SY5Y) was 770 nM.
With `c1ccc(-c2ccc(-c3c[nH]c(CCCC4CCCCC4)n3)cc2)cc1` the IC50 [1] was 19 nM and the IC50 (SH-SY5Y) was 1000 nM.
With `c1ccc(-c2ccc(-c3c[nH]c(CC4CCCCC4)n3)cc2)cc1` the IC50 [1] was 70 nM.
`CCCC(CCC)c1nc(-c2ccc(C(C)(C)C)cc2)c[nH]1` gave an IC50 [1] of 30 nM and an IC50 (SH-SY5Y) of 430 nM.
With `CCN(CC)CC(=O)Nc1c(C)cccc1C` [LIDOCAINE] the IC50 [1] was 56000 nM.
`CCCCCC(CCCCC)c1nc(-c2ccc(-c3ccccc3)cc2)c[nH]1` was tested, and the IC50 [1] was 8 nM and the IC50 (SH-SY5Y) was 810 nM.
`Fc1ccc(-c2c[nH]c(CC3CCCCC3)n2)cc1` showed an IC50 [1] of 146 nM.
`NC(=O)N1c2ccccc2C=Cc2ccccc21` [CARBAMAZEPINE] gave an IC50 [1] of 167000 nM.
